The record followed here is paper PMC11876772 (Materials Today Bio, 2025).

One series is described as follows: in vitro. Conditions: chicken.
The subject of series [1] is TLR7/MyD88/NF-кB and MAPK pathways in BMDCs. The series is classed as cell-based, ICR mice.

SMILES strings stand for the structures.

In “in vitro”, `CC(C)Cn1cnc2c(N)nc3ccccc3c21` [IMQ, imiquimod] yielded a hemolysis of roughly 37.5%. Further, the “protein expression of TLR7 and MyD88 compared with un-treated BMDCs” value in series [1] is “induced the high protein expression of TLR7 (P < 0.001) and MyD88 (P < 0.001)”.
